Activity, viability and Stabilty data for 13 compounds are collected here from ChEMBL document CHEMBL4706574, “Preparation, characterization, antioxidant evaluation of new curcumin derivatives and effects of forming HSA-bound nanoparticles on the stability and activity” (Eur J Med Chem, 2020).

Active and inactive are the calls of the source. The calls are words filed in the database; no cut-off is given here.

Data set [1] relates to PC-12. Put plainly: Cytoprotective activity against H2O2-induced cell death in […] assessed as cell viability at 30 to 100 uM incubated for 0.5 hrs followed by H2O2 stimulation and measured after 2 hrs by MTT assay. The class given is functional, cell-based. Conditions: dose 30-100 µM, time 2.5 hrs. (In general: Formazan colour is commonly taken as a measure of viable cells.)

In data set [2] the test system is PC-12. Description: Cytoprotective activity against H2O2-induced cell death in […] assessed as cell viability at 10 uM incubated for 0.5 hrs followed by H2O2 stimulation and measured after 2 hrs by MTT assay. The class given is functional, cell-based. The conditions noted are these: time 2.5 hrs.
The nature of data set [3]: Cytoprotective activity against H2O2-induced cell death in […] assessed as cell viability at 30 uM incubated for 0.5 hrs followed by H2O2 stimulation and measured after 2 hrs by MTT assay relative to control. The class given is functional. Conditions: Rattus norvegicus, time 2.5 hrs, read-out: Activity.
Data set [4] concerns PC-12. Put plainly: Cytoprotective activity against H2O2-induced cell death in […] assessed as cell viability at 0.1 uM incubated for 0.5 hrs followed by H2O2 stimulation and measured after 2 hrs by MTT assay. Format: functional, cell-based. The conditions noted are these: time 2.5 hrs.
A short description of data set [5]: Stability of compound in PBS buffer at pH 7.4 incubated for 48 hrs by UV-vis spectrophotometry. Conditions: pH 7.4, 48 h. The class given is physicochemical.
In another data set the test system is K562. Description: Antiproliferative activity against human K562 cells assessed as cell viability at 10 uM incubated for 48 hrs by MTT assay (reference value: 100 %). The class given is functional. Conditions: read-out: Activity.
For the next data set, the system named is HepG2. Put plainly: Antiproliferative activity against human HepG2 cells assessed as cell viability at 10 uM incubated for 48 hrs by MTT assay (reference value: 100 %). The class given is functional. The conditions noted are these: read-out: Activity.
The subject of another data set is HCT-116. Put plainly: Antiproliferative activity against human HCT-116 cells assessed as cell viability at 10 uM incubated for 48 hrs by MTT assay (reference value: 100 %). The conditions noted are these: read-out: Activity. The class given is functional.
Data set [6] deals with PC-12. Put plainly: Cytoprotective activity against H2O2-induced cell death in […] assessed as cell viability at 100 uM incubated for 0.5 hrs followed by H2O2 stimulation and measured after 2 hrs by MTT assay. Conditions: Rattus norvegicus, time 2.5 hrs. Format: functional, cell-based.

On to `Oc1ccc(/C=C/c2cc(O)cc(O)c2)cc1`, for which the outcome with PC-12 [1] (Rattus norvegicus) was Active. The outcome with PC-12 [2] was inactive.
Turning to `C=CCc1cc(/C=C/C(=O)/C=C(O)/C=C/c2cc(CC=C)c(O)c(OC)c2)cc(OC)c1O`, the outcome in the data set with PC-12 [1] (Rattus norvegicus) and in the data set with PC-12 [4] was Active. In addition, in data set [3], the viability at 30 µM was 100%.
Turning to `COc1cc(/C=C/c2cc(/C=C/c3cc(CC=C(C)C)c(O)c(OC)c3)n[nH]2)ccc1O`, in the data set with PC-12 [1] (Rattus norvegicus), the result was Active.
Take `COc1cc(/C=C/C(=O)CC(=O)/C=C/c2ccc(O)c(OC)c2)ccc1O` [CURCUMIN]: the outcome in the data set on PC-12 [1] (Rattus norvegicus) was Active. For the same compound, the Stabilty entry in data set [5] was “Unstable”. In addition, the viability at 10 µM with K562 turned out to be 65.4%; in the data set with HepG2, 58.8%; with HCT-116, 10.3%.
As for `COc1cc(/C=C/c2cc(/C=C/c3cc(CC=C(C)C)c(O)c(OC)c3)[nH]n2)cc(CC=C(C)C)c1O`, in the data set on PC-12 [1] (Rattus norvegicus), the result was Active. In addition, in data set [3], the viability at 30 µM was determined as 100%. For the same compound, the outcome in the data set with PC-12 [6] was inactive.
Regarding `C=CCc1cc(/C=C/c2cc(/C=C/c3cc(CC=C(C)C)c(O)c(OC)c3)n[nH]2)cc(OC)c1O`, the outcome with PC-12 [1] (Rattus norvegicus) was Active.
For `C=CCc1cc(/C=C/C(=O)/C=C(O)/C=C/c2ccc(O)c(OC)c2)cc(OC)c1O`, the outcome in the data set with PC-12 [1] (Rattus norvegicus) was Active. In data set [3], the viability at 30 µM was 100%. Moreover, the result in the data set with PC-12 [6] was inactive.
The corresponding values for `COc1cc(/C=C/C(O)=C/C(=O)/C=C/c2cc(CC=C(C)C)c(O)c(OC)c2)ccc1O` are “Active”, 100% and “inactive”.
On to `COc1cc(/C=C/C(=O)/C=C(O)/C=C/c2cc(CC=C(C)C)c(O)c(OC)c2)cc(CC=C(C)C)c1O`, for which the result in the data set with PC-12 [1] (Rattus norvegicus), in the data set on PC-12 [6] and in the data set with PC-12 [4] was Active. Besides, the viability at 30 µM in [3] stood at 100%. In addition, in [5], the Stabilty result is “Unstable”. For the same compound, the results for the viability at 10 µM in the data set on K562, in the data set on HepG2 and with HCT-116 were 64.3%, 64.3% and 61.1%, respectively.
As to `C=CCc1cc(/C=C/c2cc(/C=C/c3ccc(O)c(OC)c3)[nH]n2)cc(OC)c1O`, in the data set on PC-12 [1] (Rattus norvegicus), the result was Active.
For `C=CCc1cc(/C=C/c2cc(/C=C/c3cc(CC=C)c(O)c(OC)c3)[nH]n2)cc(OC)c1O`, the outcome in the data set on PC-12 [1] (Rattus norvegicus) was Active.
For the compound `O=C(O)c1cc(O)c(O)c(O)c1`, in the data set on PC-12 [1], the outcome was Active. In the data set with PC-12 [2], the result was inactive.
As to `C=CCc1cc(/C=C/C(O)=C/C(=O)/C=C/c2cc(CC=C(C)C)c(O)c(OC)c2)cc(OC)c1O`, the outcome in the data set with PC-12 [1] (Rattus norvegicus) and with PC-12 [4] was Active. Further, in data set [3], the viability at 30 µM worked out at 100%.
